For 9 compounds, carcinogen call results are on record in PubChem BioAssay AID1259411 (Chemical Carcinogenesis Research Information System (CCRIS), 2018).

The source made the active and inactive calls. How the calls were made is not given here.

For the data set, the system named is rodent carcinogenicity bioassays, tumor incidence. Kind of data set: CCRIS carcinogenicity studies. An outline of the steps: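 Archive of carcinogenicity, mutagenicity, tumor promotion and tumor inhibition results drawn from journals, NCI reports and other sources, expert-reviewed; covers 1985-2011 and is no longer updated.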

As for `c1ccc2c(c1)-c1ccc3ccc4cccc5cc-2c1c3c45`, the carcinogen call runs as follows: (Species: MOUSE, Strain/Sex: ICR/FEMALE, Route: DERMAL, Tumor Site: Type of Lesion: INTEGUMENTARY SYSTEM (SKIN): PAPILLOMA, CARCINOMA) “active; positive”; (Species: MOUSE, Strain/Sex: XVII-NC/Z/MALE, Route: SUBCUTANEOUS, Tumor Site: Type of Lesion: INJECTION SITE: SARCOMA) “active; positive”; (Species: RAT, Strain/Sex: OSBORNE-MENDEL/FEMALE, Route: LUNG IMPLANT, Dose: 0, 0.16, 0.83, 4.15 MG IN BEESWAX/TRIOCTANOIN (STUDY DURATION: LIFETIME), Dose: 0, 0.16, 0.83, 4.15 MG IN BEESWAX/TRIOCTANOIN (STUDY DURATION: LIFETIME), Tumor Site: Type of Lesion: LUNG: EPIDERMOID CARCINOMA) “active; positive”.

Regarding `C#C[C@]1(OC(C)=O)CC[C@H]2[C@@H]3CCC4=CC(=O)CC[C@@H]4[C@H]3CC[C@@]21C`, the carcinogen call is, setting by setting: (Species: MOUSE, Route: ORAL, Tumor Site: Type of Lesion: LIVER, PITUITARY GLAND) “active; positive”; (Species: RAT, Route: ORAL, Tumor Site: Type of Lesion: LIVER) “active; positive”.

Take `NNC(N)=O`: the carcinogen call is “active; positive” (Species: MOUSE, Strain/Sex: SWISS/FEMALE, Route: ORAL, Dose: 0.0625% IN DRINKING WATER FOR LIFE, Tumor Site: Type of Lesion: BLOOD VESSELS: ANGIOMA, ANGIOSARCOMA, LUNG) and “inactive; negative” (Species: RAT, Strain/Sex: STRAIN-CD/FEMALE, Route: ORAL, Dose: 500, 1000 PPM IN DIET FOR 78 WK (LOW DOSE) OR 32 WK (HIGH DOSE)).

For `C#CCN1CC(=O)N(COC(=O)C2C(C=C(C)C)C2(C)C)C1=O` (configuration not stated), the carcinogen call (Species: Mouse, Strain/Sex: Crj:CD-1 (ICR)/Female (51/Group), Route: Oral, Dose: 0, 100, 3500, 7000 ppm of 92.9% imiprothrin in diet for 78 wk, study duration 78 wk, Dose: 0, 100, 3500, 7000 ppm of 92.9% imiprothrin in diet for 78 wk, study duration 78 wk) is “inactive; negative”; the carcinogen call (Species: Mouse, Strain/Sex: Crj:CD-1 (ICR)/Male (51/Group), Route: Oral, Dose: 0, 100, 3500, 7000 ppm of 92.9% imiprothrin in diet for 78 wk, study duration 78 wk, Dose: 0, 100, 3500, 7000 ppm of 92.9% imiprothrin in diet for 78 wk, study duration 78 wk) is “inactive; negative”; the carcinogen call (Species: Rat, Strain/Sex: Sprague-Dawley/Female (50/Group), Route: Oral, Dose: 0, 50, 250, 2500, 5000 ppm of 92.9% imiprothrin in diet for 104 wk, study duration 104 wk, Dose: 0, 50, 250, 2500, 5000 ppm of 92.9% imiprothrin in diet for 104 wk, study duration 104 wk) was “inactive; negative”; the carcinogen call (Species: Rat, Strain/Sex: Sprague-Dawley/Male (50/Group), Route: Oral, Dose: 0, 50, 250, 2500, 5000 ppm of 92.9% imiprothrin in diet for 104 wk, study duration 104 wk, Dose: 0, 50, 250, 2500, 5000 ppm of 92.9% imiprothrin in diet for 104 wk, study duration 104 wk) is “inactive; negative”.

As to `CC(CN1CC(=O)NC(=O)C1)N1CC(=O)NC(=O)C1` (configuration not stated), the carcinogen call runs as follows: (Species: MOUSE, Strain/Sex: B6C3F1/FEMALE, Route: INTRAPERITONEAL, Dose: 0, 40, 80 MG/KG IN BUFFERED SALINE 3/WK FOR 52 WK, Dose: 0, 40, 80 MG/KG IN BUFFERED SALINE 3/WK FOR 52 WK, Tumor Site: Type of Lesion: LYMPHATIC SYSTEM: HISTIOCYTIC LYMPHOMA) “active; positive”; (Species: MOUSE, Strain/Sex: B6C3F1/MALE, Route: INTRAPERITONEAL, Dose: 0, 40, 80 MG/KG IN BUFFERED SALINE 3/WK FOR 52 WK, Dose: 0, 40, 80 MG/KG IN BUFFERED SALINE 3/WK FOR 52 WK) “inactive; negative”; (Species: RAT, Strain/Sex: SPRAGUE-DAWLEY/FEMALE, Route: INTRAPERITONEAL, Dose: 0, 48, 96 MG/KG IN BUFFERED SALINE 3/WK FOR 52 WK, Dose: 0, 48, 96 MG/KG IN BUFFERED SALINE 3/WK FOR 52 WK, Tumor Site: Type of Lesion: UTERUS: ADENOCARCINOMA (NOS)) “active; positive”; (Species: RAT, Strain/Sex: SPRAGUE-DAWLEY/MALE, Route: INTRAPERITONEAL, Dose: 0, 48, 96 MG/KG IN BUFFERED SALINE 3/WK FOR 52 WK, Dose: 0, 48, 96 MG/KG IN BUFFERED SALINE 3/WK FOR 52 WK) “inactive; negative”.

With `ClCC(Cl)Cl`, the carcinogen call by setting is: (Species: MOUSE, Strain/Sex: B6C3F1/FEMALE, Route: GAVAGE, Dose: 0, 195, 390 MG/KG/D, TWA, Dose: 0, 195, 390 MG/KG/D, TWA, Tumor Site: Type of Lesion: LIVER: HEPATOCELLULAR CARCINOMA) “active; positive”; (Species: MOUSE, Strain/Sex: B6C3F1/MALE, Route: GAVAGE, Dose: 0, 195, 390 MG/KG/D, TWA, Dose: 0, 195, 390 MG/KG/D, TWA, Tumor Site: Type of Lesion: LIVER: HEPATOCELLULAR CARCINOMA) “active; positive”; (Species: RAT, Strain/Sex: OSBORNE-MENDEL/FEMALE, Route: GAVAGE, Dose: 0, 46, 92 MG/KG/D, TWA, Dose: 0, 46, 92 MG/KG/D, TWA) “inactive; negative”; (Species: RAT, Strain/Sex: OSBORNE-MENDEL/MALE, Route: GAVAGE, Dose: 0, 46, 92 MG/KG/D, TWA, Dose: 0, 46, 92 MG/KG/D, TWA) “inactive; negative”.

As to `Nc1ccc(-c2ccc(N)c(Cl)c2)cc1Cl`, the carcinogen call runs as follows: (Species: HAMSTER, Route: ORAL, Tumor Site: Type of Lesion: URINARY BLADDER) “active; positive”; (Species: RAT, Route: ORAL, Tumor Site: Type of Lesion: EAR (ZYMBAL GLAND), MAMMARY GLAND, INTEGUMENTARY SYSTEM (SKIN), HEMATOPOIETIC SYSTEM, URINARY BLADDER, Tumor Site: Type of Lesion: EAR (ZYMBAL GLAND), MAMMARY GLAND, INTEGUMENTARY SYSTEM (SKIN), HEMATOPOIETIC SYSTEM, URINARY BLADDER) “active; positive”; (Species: RAT, Route: SUBCUTANEOUS, Tumor Site: Type of Lesion: MAMMARY GLAND, INTEGUMENTARY SYSTEM (SKIN)) “active; positive”.

In the case of `O=NN1CCC[C@H]1c1cccnc1`, the carcinogen call (Species: HAMSTER, Route: SUBCUTANEOUS, Tumor Site: Type of Lesion: TRACHEA) is “active; positive”; the carcinogen call (Species: MINK, Strain/Sex: MALE, FEMALE, Route: SUBCUTANEOUS, Dose: 0, 11.9 MILLIMOLAR (TOTAL DOSE) GIVEN IN SUBDOSES 2/WK FOR 38 WK (STUDY DURATION: 185 WK), Tumor Site: Type of Lesion: NASAL CAVITY: TUMORS) was “active; positive”; the carcinogen call (Species: MOUSE, Route: INTRAPERITONEAL, Tumor Site: Type of Lesion: LUNG) is “active; positive”; the carcinogen call (Species: MOUSE, Strain/Sex: CFLP/FEMALE, Route: DERMAL, Dose: 0, 12.5, 50, 200 UG IN ACETONE 2 D/WK FOR 104 WK (STUDY DURATION: 24 MO), Dose: 0, 12.5, 50, 200 UG IN ACETONE 2 D/WK FOR 104 WK (STUDY DURATION: 24 MO)) is “inactive; negative”; the carcinogen call (Species: MOUSE, Strain/Sex: STRAIN-A/FEMALE, Route: INTRAPERITONEAL, Dose: 0, 40, 200 UMOL TOTAL DOSE ADMINISTERED IN SUBDOSES 3/WK FOR 7 WK (STUDY DURATION: 37 WK), Dose: 0, 40, 200 UMOL TOTAL DOSE ADMINISTERED IN SUBDOSES 3/WK FOR 7 WK (STUDY DURATION: 37 WK), Tumor Site: Type of Lesion: LUNG: TUMOR) was “active; positive”; the carcinogen call (Species: RAT, Route: ORAL, Tumor Site: Type of Lesion: ESOPHAGUS, NASAL CAVITY) was “active; positive”. Further, the carcinogen call runs as follows: (Species: RAT, Strain/Sex: F344/FEMALE, Route: SUBCUTANEOUS, Dose: 0, 1, 3, 9 MMOL/KG BW (TOTAL DOSE) WITH SUBDOSES GIVEN 3/WK FOR 20 WK WITH A 2 WK INTERRUPTION AFTER 7 WK (STUDY DURATIO, Dose: 0, 1, 3, 9 MMOL/KG BW (TOTAL DOSE) WITH SUBDOSES GIVEN 3/WK FOR 20 WK WITH A 2 WK INTERRUPTION AFTER 7 WK (STUDY DURATIO, Tumor Site: Type of Lesion: NASAL CAVITY: TUMORS, ESOPHAGUS: BENIGN TUMORS) “active; positive”; (Species: RAT, Strain/Sex: F344/MALE, Route: SUBCUTANEOUS, Dose: 0, 1, 3, 9 MMOL/KG BW (TOTAL DOSE) WITH SUBDOSES GIVEN 3/WK FOR 20 WK WITH A 2 WK INTERRUPTION AFTER 7 WK (STUDY DURATIO, Dose: 0, 1, 3, 9 MMOL/KG BW (TOTAL DOSE) WITH SUBDOSES GIVEN 3/WK FOR 20 WK WITH A 2 WK INTERRUPTION AFTER 7 WK (STUDY DURATIO, Tumor Site: Type of Lesion: NASAL CAVITY: TUMORS, LUNG: TUMORS, ESOPHAGUS: BENIGN TUMORS, Tumor Site: Type of Lesion: NASAL CAVITY: TUMORS, LUNG: TUMORS, ESOPHAGUS: BENIGN TUMORS) “active; positive”.

Consider `O=CNNC=O`, for which the carcinogen call is “active; positive” (Species: MOUSE, Strain/Sex: SWISS/FEMALE, Route: ORAL, Dose: 0, 2% SOLUTION IN DRINKING WATER FROM AGE 6 WK FOR LIFE FOR AN AVERAGE DAILY INTAKE OF 0, 144 MG, Dose: 0, 2% SOLUTION IN DRINKING WATER FROM AGE 6 WK FOR LIFE FOR AN AVERAGE DAILY INTAKE OF 0, 144 MG, Tumor Site: Type of Lesion: LUNG: ADENOMA OR ADENOCARCINOMA) and “active; positive” (Species: MOUSE, Strain/Sex: SWISS/MALE, Route: ORAL, Dose: 0, 2% SOLUTION IN DRINKING WATER FROM AGE 6 WK FOR LIFE FOR AN AVERAGE DAILY INTAKE OF 0, 146 MG, Dose: 0, 2% SOLUTION IN DRINKING WATER FROM AGE 6 WK FOR LIFE FOR AN AVERAGE DAILY INTAKE OF 0, 146 MG, Tumor Site: Type of Lesion: LUNG: ADENOMA OR ADENOCARCINOMA).
